pIC50: −log10 of the molar value. Like-named read-outs stand apart in the source and are kept apart here.
Columns and labels:
[1] = tested on: Bone Marrow Derived Mesenchymal Stem Cells, human (BM-MSC); myofibroblast content; assay: Myofibroblast reduction phenotype in TGF-beta-1 fibrogenic differentiation culture (high-content imaging); format: cell-based
Method: (§1) Bone Marrow Derived Mesenchymal Stem Cells, human (BM-MSC, ATCC PCS-500-012) were cultured in medium composed of Mesenchymal Stem Cell Basal Medium foe Adipose, Umbilcal and Bone Marrow-derived MSCs (ATCC PCS-400030 and Mesenchymal Stem Cell Growth for Bone Marrow-derived MSCs (ATCC PCS-500-041). Cells were seeded at a density of 15,000 cells/well in a 96-well format.
(§2) To induce fibrogenic differentiation BM-MSCs were cultured in a medium composed by Dulbecco's Modified Eagle Medium, 2% horse serum (HS) (Sigma H1270) and 5-10 ng/ml TGF-beta-1 (PreproTech 100-21). Cells were cultured in basal media for 2 days before being switched to fibrogenic differentiation media for 5 days, after which they were taken down for downstream assays. Compound treatment was added when media was switched to fibrogenic differentiation media, cells were treated with 0.1% DMSO if not receiving compound.
(§3) Cells were fixed in 4% PFA for 10 min at RT. Fixed cells were washed three times in 1×PBS and incubated in permeabilization solution (0.5% Triton X-100 in 1×PBS) for 10 min. Unspecific binding were saturated by incubating samples in blocking solution (5% donkey serum in 1×PBS) for 1 h. The cells were incubated at RT for 1 hour with gentle shaking in the presence of primary antibody against, alpha-smooth muscle actin (1:1000, Sigma™ A5228). The cells were washed three times with 0.05% Tween-20 in 1×PBS and incubated, for 1 hour at RT, with host-specific secondary antibodies in addition to counterstaining for Alexa Fluor Plus 750 Phalloidin (1:2000, Invitrogen™, A30105) and DAPI (1:2000). Primary and secondary antibodies were diluted according to the manufacturer's recommendations in blocking solution+0.1% Triton X-100. Finally, the cells were washed three times with 0.05% Tween-20 in 1×PBS, washed twice with 1×PBS and stored at 4° C. Images were acquired on a Thermo Scientific™ CellInsight™ CX7LED high content analysis (HCA) imaging instrument using a 10× objective. Nine fields per well were captured for quantification.
Columbus™ software (version 2.9.1, Perkin Elmer®) was used for analysis of acquired images. A custom analysis pipeline was constructed to quantify the percentage of myofibroblasts within the well. First, nuclei were segmented using “Method B” and intensity and morphology properties were calculated using standard settings. Second, viable nuclei were identified by gating on nuclei intensity, area, and roundness of the segmented objects. Next, a region of interest was then defined around the selected viable nuclei by expanding the outer boarder by […]. STAR morphology and SER texture properties were calculated within the region of interest for the alpha-smooth muscle actin and phalloidin channels using the following parameters: profile width=4 px, scale=1 px, Kernel normalization. The calculated morphology and texture properties were used to train a linear classifier consisting of two classes, myofibroblasts and mesenchymal stem cells, by selecting >100 objects in each negative control (DMSO) and positive control (fibrogenic differentiation media) conditions. The linear classifier was then applied to the untrained test wells using a batch analysis to calculate the percentage of myofibroblasts within each image using a formula output (myofibroblasts:number of objects/viable nuclei:number of objects)*100. Results were averaged across the nine fields imaged per well.
The initial six NOX4 inhibitors were assessed in replicate experiments for both potency of myofibroblast reducing activity and an associated IC50 for the myofibroblast reduction phenotype was determined (Table 1).

mesenchymal stem cells = assay: Phalloidin (F-actin) / alpha-SMA staining of treated mesenchymal stem cells; format: cell-based, human; details: 1 μM
Method: as §1, §2, §3

[2] = as described; cited from earlier work

**Q.** With `CN(C)c1cccc(-c2c3c(=O)n(-c4ccccc4Cl)[nH]c3cc(=O)n2C)c1` [FTX1620, Setanaxib] as the molecule, how does the pIC50 ([1]; Homo sapiens, BMMSC, first experiment, read-out: IC50 Phenotype (myofibroblast reduction)) read?
**A.** Its pIC50 is 7.11.

**Q.** What about the pIC50 ([1]; Homo sapiens, BMMSC, replicate experiment, read-out: IC50 Phenotype Replicate) of the same molecule?
**A.** Its pIC50 is 6.90.

**Q.** And the pIC50 ([1]; replicate experiment, read-out: IC50 Phenotype Replicate)?
**A.** The pIC50 was 6.90.

**Q.** And the “reduction of myofibroblast content (concentration-response)” value ([1]; treated cells in culture)?
**A.** The value was “reduced the myofibroblast content of treated cells in a dose-responsive manner”.

**Q.** And the “phalloidin (F-actin) staining” value (mesenchymal stem cells)?
**A.** The value was “significant phalloidin staining”.

**Q.** What about the “α-SMA immunofluorescence and phalloidin (F-actin) staining” value (mesenchymal stem cells; FIG. 15) of the same molecule?
**A.** Its value is “exhibited both α-SMA immunofluorescence and phalloidin (F-actin) staining”.

**Q.** And the oral bioavailability [2]?
**A.** Its oral bioavailability is “orally bioavailable”.

Source: US20250223560A1, “NOX4 INHIBITOR COMPOSITIONS AND METHODS FOR REGENERATION OF DYSTROPHIC MUSCLE” (FULCRUM THERAPEUTICS, INC., priority 2022, published 2025)
